US20220041681A1 (MEDIMMUNE LIMITED, priority 2016, published 2022)

System: overweight or obese subjects with type 2 diabetes mellitus (T2DM)
Assay: Multiple-ascending dose study Part II (Cohorts 5 and 6)
Assay type: in vivo, human
Conditions: for Fasting Glucose (change) / Glucose AUG (change) / Weight (change): n = 12 active
Experimental: A randomized, double-blind, multiple-ascending dose study is performed. This study consists of 2 cohorts: cohort 5 and cohort 6.
The study consists of an inpatient up-titration evaluation period beginning on Day 3 for both Cohorts 5 and 6 and an outpatient follow-up period. The first 4 days and the final day of dosing at 300 μg are inpatient.
Subjects have a second inpatient period for the initiation of the 300 μg dose ending on the fourth day at that dose followed by at-home self administration.
Additional time points include before commencing the 300 μg dose (Day 16 for Cohort 5 and Day 11 for Cohort 6), and at the end of dosing (Day 22 for Cohort 5 and Day 17 for Cohort 6).

Question: `CCCCCCCCCCCCCCCC(=O)N[C@@H](CCC(=O)NCCCC[C@H](NC(=O)[C@H](CC(=O)O)NC(=O)[C@H](CO)NC(=O)C(NC(=O)[C@H](Cc1ccccc1)NC(=O)C(NC(=O)CNC(=O)[C@H](CCC(N)=O)NC(=O)[C@H](CO)NC(=O)[C@@H](N)Cc1cnc[nH]1)[C@@H](C)O)[C@@H](C)O)C(=O)N[C@@H](CO)C(=O)N[C@@H](CCC(=O)O)C(=O)N[C@@H](Cc1ccc(O)cc1)C(=O)N[C@@H](CC(C)C)C(=O)N[C@@H](CC(=O)O)C(=O)N[C@@H](CO)C(=O)N[C@@H](CCC(=O)O)C(=O)N[C@@H](CCCNC(=N)N)C(=O)N[C@@H](C)C(=O)N[C@@H](CCCNC(=N)N)C(=O)N[C@@H](CC(=O)O)C(=O)N[C@@H](Cc1ccccc1)C(=O)N[C@H](C(=O)N[C@@H](C)C(=O)N[C@@H](Cc1c[nH]c2ccccc12)C(=O)N[C@@H](CC(C)C)C(=O)N[C@@H](CCC(=O)O)C(=O)N[C@@H](C)C(=O)NCC(=O)NCC(=O)O)C(C)C)C(=O)O` (stereo partly drawn) [Peptide G933] was tested. Which “glucose AUC reduction” value (Cohort 5 (100/150/200/300 μg, 22 days)) did it give?
Answer: The value was 41.7%.

Question: What about the “Fasting Glucose (change)” value (Cohort 5, 300 ug) of the same compound?
Answer: The value was -24.40 mg/dL.

Question: And the “Glucose AUG (change)” value (Cohort 5, 300 ug)?
Answer: Its value is −33.7.

Question: What about the “Weight (change)” value (Cohort 5, 300 ug, difference to placebo after 22 days) of the same compound?
Answer: The value was -2.11 kg.

Question: What about the “weight loss difference vs placebo” value (Cohort 5, 22 days) of the same compound?
Answer: The value was 2.11 kg.

Question: What about the “heart rate increase from baseline” value (Cohort 5, 22 days administration) of the same compound?
Answer: The value was “approximately 7.6 BPM”.

Question: What about the weight lost (Cohort 5, after 22 days) of the same compound?
Answer: The weight lost was “about 3.09 kg”.

Question: And the “glucose AUC reduction” value (Cohort 6 (100/200/300 μg, 17 days))?
Answer: Its value is 35.8%.

Question: What about the “Fasting Glucose (change)” value (Cohort 6, 300 ug) of the same compound?
Answer: The value was -36.94 mg/dL.

Question: And the “Glucose AUG (change)” value (Cohort 6, 300 ug)?
Answer: The value was −28.9.

Question: And the “Weight (change)” value (Cohort 6, 300 ug, difference to placebo after 17 days)?
Answer: Its value is -1.88 kg.

Question: And the patients who vomited (Cohort 6, 1 patient)?
Answer: The patients who vomited was 8.3%.

Question: What about the “weight loss difference vs placebo” value (Cohort 6, 17 days) of the same compound?
Answer: Its value is 1.88 kg.

Question: What about the “heart rate increase from baseline” value (Cohort 6, 17 days administration) of the same compound?
Answer: The value was “approximately 5.9 BPM”.

Question: And the weight lost (Cohort 6, after 17 days)?
Answer: The weight lost was “about 2.23 kg”.

Question: And the “deaths or serious adverse events” value (Cohorts 5 and 6)?
Answer: Its value is “No deaths or serious adverse events were observed”.

Question: What about the rate of vomiting (Cohorts 5 and 6 together, 4/24) of the same compound?
Answer: The rate of vomiting was 16%.

Question: What about the rate of nausea (Cohorts 5 and 6 together, 8/24) of the same compound?
Answer: The rate of nausea was 33%.
